Measured values taken from ChEMBL document CHEMBL1201862, “PubChem BioAssay data set” (2004).
Calls of active or inactive are those of the source.

Tests used:
[1] = target: Beta-galactosidase (Escherichia coli, UniProt Q8VNN2); assay: PubChem AID 485352; assay type: functional
[2] = target: T1, Heat shock factor protein 1 (Mus musculus, UniProt P38532); assay: inhibition of MG132-induced HSE-luciferase signal, confirmation, cell-based, NIH3T3, luminescence, dose retest (AID 2382); assay type: functional;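 also: NIH3T3 fibroblasts with HSF1-driven luciferase reporter stressed by proteasome inhibitor MG132; luminescence from HSF1-driven luciferase expression after 8 hours of MG132 stress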
T1 sequence (P38532 whole entry): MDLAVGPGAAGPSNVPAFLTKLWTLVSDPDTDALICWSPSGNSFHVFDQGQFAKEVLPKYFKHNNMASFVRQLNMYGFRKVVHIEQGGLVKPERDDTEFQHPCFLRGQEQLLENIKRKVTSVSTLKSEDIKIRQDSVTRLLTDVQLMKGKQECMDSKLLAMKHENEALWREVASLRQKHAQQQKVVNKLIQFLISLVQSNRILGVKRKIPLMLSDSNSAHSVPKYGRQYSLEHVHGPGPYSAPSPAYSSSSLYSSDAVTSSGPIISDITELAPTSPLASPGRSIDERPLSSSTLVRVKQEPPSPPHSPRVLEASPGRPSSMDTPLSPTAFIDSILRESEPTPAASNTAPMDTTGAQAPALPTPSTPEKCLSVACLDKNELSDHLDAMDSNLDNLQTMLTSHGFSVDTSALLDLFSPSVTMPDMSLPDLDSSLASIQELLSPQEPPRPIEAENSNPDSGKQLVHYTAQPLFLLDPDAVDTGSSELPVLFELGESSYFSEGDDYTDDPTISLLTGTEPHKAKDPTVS

[3] = target: Type-1 angiotensin II receptor (Homo sapiens, UniProt P30556); assay: AT1 receptor antagonists, dose response, selectivity assay for APJ receptor antagonist project, cell-based, uHTS hits (AID 463214); assay type: functional;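 also: antagonist potency against angiotensin II stimulated AT1 response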
[4] = THP-1 cell cytotoxicity, dose response, cytotoxicity control for non-replicating M. tuberculosis project (AID 489025); assay type: functional
[5] = HepG2 cell cytotoxicity, dose response, cytotoxicity control for non-replicating M. tuberculosis project (AID 489018); assay type: functional; conditions: Mycobacterium tuberculosis
[6] = Vero E6 cell cytotoxicity, dose response, cytotoxicity control for non-replicating M. tuberculosis project, secondary assay (AID 492998); assay type: functional, VeroE6; conditions: Vero C1008
[7] = cells; assay type: functional
[8] = test system: CHO; assay: cytotoxicity in TLR9-MyD88 CHO cells, dose response, cytotoxicity control for TLR9-MyD88 binding inhibitor project, cell-based, luminescence (AID 588339); assay type: functional, hamster; conditions: Cricetulus griseus;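 also: CHO cells stably coexpressing TLR9 and MyD88 fusions from primary screen; compound exposure lasted 48 hours before viability readout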
[9] = target: Heat shock protein HSP 90-alpha (Homo sapiens, UniProt P07900); assay type: functional, organism-based
[10] = target: Beta Lactamase (Pseudomonas aeruginosa, UniProt Q932Y6); assay: beta-lactamase reporter inhibitor potency, dose response, artefact control for TLR9-MyD88 binding inhibitor project, BLA reporter cells, FRET fluorescence (AID 588341); assay type: cell-based;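 also: cell based assay in CHO-K1 cells stably expressing beta-lactamase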
[11] = test system: INS1; assay: beta cell apoptosis inhibitors, cytokine rescue, dose response, luminescence, retest (AID 449756); assay type: functional, cell-based; conditions: Rattus norvegicus;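 also: cell death triggered by IL-1 beta plus TNF-alpha plus IFN-gamma mixture; protective hits raise ATP signal compared with cytokine alone wells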
[12] = Fluorescence-based cell-based high throughput dose response assay for inhibitors of the interaction of nucleotide-binding oligomerization domain containing 2 (NOD2) and the receptor-interacting serine-threonine kinase 2 (RIPK2).; assay type: functional; conditions: Homo sapiens
[13] = target: Paired box protein Pax-8 (Homo sapiens, UniProt Q06710); assay: inhibitors of PAX8-driven TPO luciferase reporter, dose response, RMG-I cells, cherry-pick (AID 687027); assay type: functional, cell-based;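 also: luciferase reporter driven by Pax8 target thyroperoxidase promoter measured by SteadyGlo luminescence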
[14] = non-specific cell cytotoxicity, dose response, cytotoxicity control for PAX8 inhibitor project, plate reader, dry powder samples (AID 743021); assay type: functional, cell-based

Type-1 angiotensin II receptor, sequence (P30556 whole entry): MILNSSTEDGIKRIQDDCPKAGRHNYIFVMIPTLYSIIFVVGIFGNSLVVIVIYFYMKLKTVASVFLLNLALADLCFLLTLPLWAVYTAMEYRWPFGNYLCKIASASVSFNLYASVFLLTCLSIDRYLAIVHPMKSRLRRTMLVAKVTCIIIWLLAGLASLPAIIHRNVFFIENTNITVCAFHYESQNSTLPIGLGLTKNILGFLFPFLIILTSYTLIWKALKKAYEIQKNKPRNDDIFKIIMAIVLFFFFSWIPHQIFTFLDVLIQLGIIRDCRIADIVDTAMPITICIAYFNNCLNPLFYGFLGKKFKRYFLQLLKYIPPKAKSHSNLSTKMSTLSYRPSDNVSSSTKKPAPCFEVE
Paired box protein Pax-8, sequence (Q06710 whole entry): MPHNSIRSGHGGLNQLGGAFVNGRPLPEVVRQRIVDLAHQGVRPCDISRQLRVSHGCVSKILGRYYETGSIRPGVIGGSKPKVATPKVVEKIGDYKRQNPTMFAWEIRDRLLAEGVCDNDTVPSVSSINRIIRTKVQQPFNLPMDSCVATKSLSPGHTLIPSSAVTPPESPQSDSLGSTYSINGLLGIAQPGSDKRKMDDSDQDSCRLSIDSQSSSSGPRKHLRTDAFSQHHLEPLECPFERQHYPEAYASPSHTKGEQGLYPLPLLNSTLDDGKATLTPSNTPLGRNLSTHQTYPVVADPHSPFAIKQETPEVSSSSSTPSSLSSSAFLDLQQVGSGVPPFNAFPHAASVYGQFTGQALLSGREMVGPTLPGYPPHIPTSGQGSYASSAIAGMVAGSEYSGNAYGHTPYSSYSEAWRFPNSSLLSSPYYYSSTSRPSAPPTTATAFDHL
Beta-galactosidase, sequence (Q8VNN2 whole entry): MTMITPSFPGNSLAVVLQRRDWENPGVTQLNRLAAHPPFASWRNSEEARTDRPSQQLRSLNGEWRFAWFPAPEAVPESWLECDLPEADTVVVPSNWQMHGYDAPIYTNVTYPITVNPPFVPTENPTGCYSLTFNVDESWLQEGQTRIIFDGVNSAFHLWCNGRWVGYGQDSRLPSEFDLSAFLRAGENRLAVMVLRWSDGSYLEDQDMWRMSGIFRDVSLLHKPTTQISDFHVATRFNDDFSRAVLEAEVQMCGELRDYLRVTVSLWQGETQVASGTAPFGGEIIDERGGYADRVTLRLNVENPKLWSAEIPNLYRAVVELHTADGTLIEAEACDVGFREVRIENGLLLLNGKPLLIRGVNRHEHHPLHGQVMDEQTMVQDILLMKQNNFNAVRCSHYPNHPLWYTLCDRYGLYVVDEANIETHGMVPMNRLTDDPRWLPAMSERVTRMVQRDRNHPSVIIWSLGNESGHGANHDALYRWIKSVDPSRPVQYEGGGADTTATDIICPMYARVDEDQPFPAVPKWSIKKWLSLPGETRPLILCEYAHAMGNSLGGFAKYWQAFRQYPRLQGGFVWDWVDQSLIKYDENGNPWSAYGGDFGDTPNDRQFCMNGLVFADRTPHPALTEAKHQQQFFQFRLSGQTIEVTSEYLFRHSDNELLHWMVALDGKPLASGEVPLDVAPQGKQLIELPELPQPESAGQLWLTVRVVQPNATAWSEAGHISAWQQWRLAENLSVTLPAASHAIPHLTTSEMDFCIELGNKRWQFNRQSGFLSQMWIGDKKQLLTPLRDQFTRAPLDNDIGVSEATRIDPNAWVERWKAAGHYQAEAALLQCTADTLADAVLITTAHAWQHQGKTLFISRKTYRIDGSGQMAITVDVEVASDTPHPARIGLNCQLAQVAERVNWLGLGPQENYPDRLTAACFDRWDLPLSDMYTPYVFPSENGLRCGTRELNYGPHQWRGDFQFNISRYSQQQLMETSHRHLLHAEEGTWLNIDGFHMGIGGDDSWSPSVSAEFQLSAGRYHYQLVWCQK
Beta Lactamase, sequence (Q932Y6 whole entry): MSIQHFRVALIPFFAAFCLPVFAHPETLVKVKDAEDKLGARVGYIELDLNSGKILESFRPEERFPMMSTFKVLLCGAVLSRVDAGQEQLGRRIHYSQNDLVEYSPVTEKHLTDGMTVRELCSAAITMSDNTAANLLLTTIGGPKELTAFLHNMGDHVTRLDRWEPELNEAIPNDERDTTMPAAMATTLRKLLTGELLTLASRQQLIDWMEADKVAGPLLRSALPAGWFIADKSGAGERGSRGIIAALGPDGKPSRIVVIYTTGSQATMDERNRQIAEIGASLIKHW

For `O=C(C#Cc1ccccc1)c1ccco1`, the EC50 [1] was > 40 µM (inactive), the EC50 [2] was 6.57 µM (active) and the IC50 [3] was 8.43 µM (active). For the same compound, the CC50 [4] was 11 µM (active), the CC50 [5] was 9.8 µM (active) and the CC50 [6] was 7.89 µM (active). The IC50 [7] was 1.32 µM (active), the IC50 [8] was 1.82 µM (active) and the AC50 [9] was 3.05 µM (active). For the same compound, the IC50 [10] was > 49.8 µM (inactive), the AC50 [11] was 6.11 µM (active) and the IC50 [12] was 2.25 µM (active). For the same compound, the AC50 [13] was 9.61 µM (active) and the AC50 [14] was 23.7 µM (active).
